From patent US11976083B2, “Inhibitors of peptidylarginine deiminases” (Gilead Sciences, Inc., priority 2020, dated 2024)

The molecules below were run against T1, human PAD4 (Homo sapiens, UniProt Q9UM07) (assay: In vitro PAD4 BAEE biochemical assay). Details: BAEE substrate 3 mM, 5 nM PAD4, 2 mM calcium chloride; geometric mean of multiple experiments.
T1 construct: human PAD4 (NM_012387), A2-P663, was PCR amplified; His-SUMO (N, cleaved yes); made in house; host or cells: E. coli BL21(DE3)
Method in brief: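 Recombinant human PAD4 (5 nM final) with 2 mM CaCl2 was preincubated with compound 30 min at 25 °C in MOPS buffer pH 7.6, then reacted with 3 mM BAEE for 2 h at 25 °C. After EDTA stop, released ammonia was detected by o-phthalaldehyde/DTT fluorescence (ex 405/em 535 nm); IC50 from four-parameter fit, geometric mean.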

T1 sequence (Q9UM07 2-663): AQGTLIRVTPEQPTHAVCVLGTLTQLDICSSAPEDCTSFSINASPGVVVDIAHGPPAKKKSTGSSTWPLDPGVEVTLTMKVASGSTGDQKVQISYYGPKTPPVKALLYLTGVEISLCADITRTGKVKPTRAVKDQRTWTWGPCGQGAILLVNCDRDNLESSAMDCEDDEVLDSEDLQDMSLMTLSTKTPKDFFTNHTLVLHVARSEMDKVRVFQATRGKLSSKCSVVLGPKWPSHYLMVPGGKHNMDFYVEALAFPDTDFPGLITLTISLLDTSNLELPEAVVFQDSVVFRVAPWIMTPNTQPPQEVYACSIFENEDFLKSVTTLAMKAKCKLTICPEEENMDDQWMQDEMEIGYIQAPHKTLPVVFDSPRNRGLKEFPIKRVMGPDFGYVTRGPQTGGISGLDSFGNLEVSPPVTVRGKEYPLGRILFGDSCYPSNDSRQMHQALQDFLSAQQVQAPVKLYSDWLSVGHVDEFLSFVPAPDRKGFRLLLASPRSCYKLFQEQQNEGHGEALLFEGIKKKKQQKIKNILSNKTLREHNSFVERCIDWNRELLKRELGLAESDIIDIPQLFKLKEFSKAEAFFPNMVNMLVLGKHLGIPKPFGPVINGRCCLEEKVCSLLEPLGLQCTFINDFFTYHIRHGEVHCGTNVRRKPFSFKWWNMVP

Row | SMILES | IC50
1 | COCCn1c(-c2cc3ccc4nc3n2CCCCC[C@@H]2C[C@H]2C(=O)N[C@@H]4C)nc2cc(C(=O)N3CCC[C@@H](N)C3)cc(OC)c21 [Example 433, (2~{R},5~{R},7~{R})-14-[5-[(3~{R})-3-aminopiperidine-1-carbonyl]-7-methoxy-1-(2-methoxyethyl)benzimidazol-2-yl]-2-methyl-3,13,19-triazatetracyclo[11.5.2.0^{5,7}.0^{16,20}] icosa-1(19),14,16(20),17-tetraen-4-one] | 46 nM
2 | C[C@H]1NC(=O)[C@@H]2C[C@H]2CCCCCn2c(-c3nc4cc(C(=O)N[C@H]5CNCC[C@@H]5F)c(F)cc4n3CCOc3ccccn3)cc3ccc1nc32 [Example 434, 6-fluoro-~{N}-[(3~{S),4~{S})-4-fluoro-3-piperidyl]-2-[(2~{R},5~{R},7~{R})-2-methyl-4-oxo-3,13,19-triazatetracyclo[11.5.2.0^{5,7}.0^{16,20}]icosa-1(19),14,16(20),17-tetraen-14-yl]-1-[2-(2-pyridyloxy)ethyl]benzimidazole-5-carboxamide] | 41 nM
3 | COCCn1c(-c2cc3ccc4nc3n2CCCCCc2nccnc2C(=O)N[C@@H]4C)nc2cc(C(=O)N3CC[C@@H](OC)[C@@H](N)C3)cc(F)c21 [Example 435, (2~{R})-17-[5-[(3~{S},4~{R})-3-amino-4-methoxy-piperidine-1-carbonyl]-7-fluoro-1-(2-methoxyethyl)benzimidazol-2-yl]-2-methyl-3,6,9,16,22-pentazatetracyclo[14.5.2.0^{5,10}.0^{19, 23}]tricosa-1(22),5(10),6,8,17,19(23),20-heptaen-4-one] | 394 nM
4 | COCCn1c(-c2cc3ccc4nc3n2CCCCC[C@@H]2C[C@H]2C(=O)N[C@@H]4C)nc2cc(C(=O)N3CC[C@@H](OC)[C@@H](N)C3)cc(F)c21 [Example 436, (2~{R},5~{R},7~{R})-14-[5-[(3~{S},4~{R})-3-amino-4-methoxy-piperidine-1-carbonyl]-7-fluoro-1-(2-methoxyethyl)benzimidazol-2-yl]-2-methyl-3,13,19-triazatetracyclo[11.5.2.0^{5,7}.0^{16,20}] icosa-1(19),14,16(20),17-tetraen-4-one] | 93 nM
5 | COc1cc(C(=O)N2C[C@H](N)[C@@H]3CC[C@H]2C3)cc2nc(-c3cc4ccc5c(F)c4n3CC(F)(F)CCC[C@@H]3C[C@H]3C(=O)N[C@@H]5C)n(C)c12 [Example 437, (2~{R},5~{R},7~{R})-14-[5-[(1~{S},4~{R},5~{R})-4-amino-2-azabicyclo[3.2.1]octane-2-carbonyl]-7-methoxy-1-methyl-benzimidazol-2-yl]-11,11,19-trifluoro-2-methyl-3,13-diazatetracyclo[11.5.2.0^{5,7}.0^{16,20}] icosa-1(19),14,16(20),17-tetraen-4-one] | 30 nM
6 | C[C@H]1NC(=O)[C@@H]2C[C@H]2CCCC(F)(F)Cn2c(-c3nc4cc(C(=O)N5C[C@H](N)[C@@H]6CC[C@H]5C6)cc(F)c4n3C3CC3)cc3ccc1nc32 [Example 438, (2~{R},5~{R},7~{R})-14-[5-[(1~{S},4~{R},5~{R})-4-amino-2-azabicyclo[3.2.1]octane-2-carbonyl]-1-cyclopropyl-7-fluoro-benzimidazol-2-yl]-11,11-difluoro-2-methyl-3,13,19-triazatetracyclo[11.5.2.0^{5,7}.0^{16,20}] icosa-1(19),14,16(20),17-tetraen-4-one] | 25 nM
7 | COc1cc(C(=O)N2C[C@H](N)[C@@H]3CC[C@H]2C3)cc2nc(-c3cc4ccc5nc4n3CCCCCc3ccccc3C(=O)N[C@@H]5C)n(C)c12 [Example 439, (2˜{R})-17-[5-[(1˜{S},4˜{R},5˜{R})-4-amino-2-azabicyclo[3.2.1]octane-2-carbonyl]-7-methoxy-1-methyl-benzimidazol-2-yl]-2-methyl-3,16,22-triazatetracyclo[14.5.2.0^{5,10}.0^{19,23}]tricosa-1(22),5(10),6,8,17,19(23),20-heptaen-4-one] | 32 nM
8 | C[C@H]1NC(=O)c2c(F)cncc2CCCCCn2c(-c3nc4cc(C(=O)N5C[C@H](N)[C@@H]6CC[C@H]5C6)cc(F)c4n3C3CC3)cc3ccc1nc32 [Example 440, (2~{R})-17-[5-[(1~{S},4~{R},5~{R})-4-amino-2-azabicyclo[3.2.1]octane-2-carbonyl]-1-cyclopropyl-7-fluoro-benzimidazol-2-yl]-6-fluoro-2-methyl-3,8,16,22-tetrazatetracyclo[14.5.2.0^{5,10}.0^{19,23}] tricosa-1(22),5(10),6,8,17,19(23),20-heptaen-4-one] | 27 nM
9 | COc1cc(C(=O)N2C[C@H](N)[C@@H]3CC[C@H]2C3)cc2nc(-c3cc4ccc5nc4n3CCCCCCC(C)(C)C(=O)N[C@@H]5C)n(C)c12 [Example 441, (11~{R})-17-[5-[(1~{S),4~{R},5~{R})-4-amino-2-azabicyclo[3.2.1]octane-2-carbonyl]-7-methoxy-1-methyl-benzimidazol-2-yl]-8,8,11-trimethyl-1,10,19-triazatricyclo[10.5.2.0^{15,18}]nonadeca-12(19),13,15(18),16-tetraen-9-one] | 37 nM
10 | COc1cc(C(=O)N2C[C@H](N)[C@@H]3CC[C@H]2C3)cc2nc(-c3cc4ccc5nc4n3CC(F)(F)CCC[C@@H]3C[C@H]3C(=O)N[C@@H]5C)n(C)c12 [Example 442, (2~{R},5~{R},7~{R})-14-[5-[(1~{S),4~{R},5~{R})-4-amino-2-azabicyclo[3.2.1]octane-2-carbonyl]-7-methoxy-1-methyl-benzimidazol-2-yl]-11,11-difluoro-2-methyl-3,13,19-triazatetracyclo[11.5.2.0^{5,7).0^{16,20}] icosa-1(19),14,16(20),17-tetraen-4-one] | 32 nM
11 | COc1cc(C(=O)N2C[C@H](N)[C@@H]3CC[C@H]2C3)cc2nc(-c3cc4ccc5nc4n3CCCCCC(C)(C)C(=O)N[C@@H]5C)n(C)c12 [Example 443, (10~{R})-16-[5-[(1~{S},4~{R},5~{})-4-amino-2-azabicyclo[3.2.1]octane-2-carbonyl]-7-methoxy-1-methyl-benzimidazol-2-yl]-7,7,10-trimethyl-1,9,18-triazatricyclo[9.5.2.0^{14,17}]octadeca-11(18),12,14(17),15-tetraen-8-one] | 37 nM
12 | COc1cc(C(=O)N2C[C@H](N)[C@@H]3CC[C@H]2C3)cc2nc(-c3cc4ccc5nc4n3CCCCC[C@@H]3C[C@H]3C(=O)N[C@@H]5C)n(C)c12 [Example 444, (2~{R},5~{R},7~{R})-14-[5-[(1~{S},4~{R},5~{R})-4-amino-2-azabicyclo[3.2.1]octane-2-carbonyl]-7-methoxy-1-methyl-benzimidazol-2-yl]-2-methyl-3,13,19-triazatetracyclo[11.5.2.0^{5,7}.0^{16,20}] icosa-1(19),14,16(20),17-tetraen-4-one] | 20 nM
13 | COc1cc(C(=O)N2C[C@H](N)[C@@H]3CC[C@H]2C3)cc2nc(-c3cc4ccc5nc4n3CCCCCCC3(CC3)C(=O)N[C@@H]5C)n(C)c12 [Example 445, (11~{R})-17-[5-[(1~{S},4~{R},5~{R})-4-amino-2-azabicyclo[3.2.1]octane-2-carbonyl]-7-methoxy-1-methyl-benzimidazol-2-yl]-11-methyl-spiro[1,10,19-triazatricyclo[10.5.2.0^{15,18}]nonadeca-12(19),13,15(18),16-tetraene-8,1′-cyclopropane]-9-one] | 72 nM
14 | COc1cc(C(=O)N2C[C@H](N)[C@@H]3CC[C@H]2C3)cc2nc(-c3cc4ccc5nc4n3CC(F)(F)CCCc3cncc(F)c3C(=O)N[C@@H]5C)n(C)c12 [Example 446, (2~{R})-17-[5-[(1~{S},4~{R},5~{R})-4-amino-2-azabicyclo[3.2.1]octane-2-carbonyl]-7-methoxy-1-methyl-benzimidazol-2-yl]-6,14,14-trifluoro-2-methyl-3,8,16,22-tetrazatetracyclo[14.5.2.0^{5,10}.0^{19,23}] tricosa-1(22),5(10),6,8,17,19(23),20-heptaen-4-one] | 38 nM
15 | COc1cc(C(=O)N2C[C@H](N)[C@@H]3CC[C@H]2C3)cc2nc(-c3cc4ccc5nc4n3CCCCC[C@@H]3C[C@@]3(F)C(=O)N[C@@H]5C)n(C)c12 [Example 447, (2~{R},5~{S},7~{R})-14-[5-[(1~{S},4~{R},5~{R})-4-amino-2-azabicyclo[3.2.1]octane-2-carbonyl]-7-methoxy-1-methyl-benzimidazol-2-yl]-5-fluoro-2-methyl-3,13,19-triazatetracyclo[11.5.2.0^{5,7}.0^{16,20}] icosa-1(19),14,16(20),17-tetraen-4-one] | 37 nM
16 | COc1cc(C(=O)N2C[C@H](N)[C@@H]3CC[C@H]2C3)cc2nc(-c3cc4ccc5nc4n3CC(F)(F)CCC[C@]3(F)C[C@H]3C(=O)N[C@@H]5C)n(C)c12 [Example 448, (2~{R},5~{S},7~{S})-14-[5-[(1~{S},4~{R},5~{R})-4-amino-2-azabicyclo[3.2.1]octane-2-carbonyl]-7-methoxy-1-methyl-benzimidazol-2-yl]-7,11,11-trifluoro-2-methyl-3,13,19-triazatetracyclo[11.5.2.0^{5,7}.0^{16,20}] icosa-1(19),14,16(20),17-tetraen-4-one] | 26 nM
17 | C[C@H]1NC(=O)[C@@H]2C[C@@]2(F)CCCC(F)(F)Cn2c(-c3nc4cc(C(=O)N5C[C@H](N)[C@@H]6CC[C@H]5C6)cc(F)c4n3C3CC3)cc3ccc1nc32 [Example 449, (2~{R},5~{S},7~{S})-14-[5-[(1~{S},4~{R},5~{R})-4-amino-2-azabicyclo[3.2.1]octane-2-carbonyl]-1-cyclopropyl-7-fluoro-benzimidazol-2-yl]-7,11,11-trifluoro-2-methyl-3,13,19-triazatetracyclo[11.5.2.0^{5,7}.0^{16,20}] icosa-1(19),14,16(20),17-tetraen-4-one] | 22 nM
